Results reported in ChEMBL document CHEMBL1201862, “PubChem BioAssay data set” (2004).
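Dose response: 5 concentrations. Exposure: 48 h. Format: 96-well plates. Endpoint: linear interpolation; highest concentration if not reached. Abbreviation: GI50, concentration required for 50% inhibition of growth.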 Active and inactive are the calls of the source. Cut-off read from the data, not from the text of the source: active = GI50 up to about 1.1 µM and inactive = higher.

How the values were obtained:
Experiment in all cases: growth of human tumour cells (NCI), 48 h
CCRF-CEM = system: CCRF-CEM
SR = system: SR
MDA-N = system: MDA-N
UACC-257 = system: UACC-257
TK-10 = system: TK-10
SW-620 = system: SW-620
HOP-62 = system: HOP-62
SF-268 = system: SF-268
NCI-H23 = system: NCI-H23
HT-29 = system: HT-29
SK-MEL-28 = system: SK-MEL-28
SF-295 = system: SF-295
BT-549 = system: BT-549
KM12 = system: KM12
UO-31 = system: UO-31
NCI-H460 = system: NCI-H460
COLO 205 = system: COLO 205
MDA-MB-435 = system: MDA-MB-435
SK-MEL-2 = system: SK-MEL-2
U-251 = system: U-251

SMILES | GI50 (CCRF-CEM) | GI50 (SR) | GI50 (MDA-N) | GI50 (UACC-257) | GI50 (TK-10) | GI50 (SW-620) | GI50 (HOP-62) | GI50 (SF-268) | GI50 (NCI-H23) | GI50 (HT-29) | GI50 (SK-MEL-28) | GI50 (SF-295) | GI50 (BT-549) | GI50 (KM12) | GI50 (UO-31) | GI50 (NCI-H460) | GI50 (COLO 205) | GI50 (MDA-MB-435) | GI50 (SK-MEL-2) | GI50 (U-251)
COc1cc(C#CC(=O)OC/C=C/c2ccc3c(c2)OCO3)cc(OC)c1OC | 18.9 µM (inactive) | 16.7 µM (inactive) | 18.5 µM (inactive) | 26.8 µM (inactive) | 21.4 µM (inactive) | 27.5 µM (inactive) | 24 µM (inactive) | 19.5 µM (inactive) | 25.2 µM (inactive) | > 100 µM (inactive) | > 100 µM (inactive) | 36.1 µM (inactive) | 19.4 µM (inactive) | 30.4 µM (inactive) | 15.6 µM (inactive) | 24.9 µM (inactive) | 19.1 µM (inactive) | 18.5 µM (inactive) | 10 µM (inactive) | 29.4 µM (inactive)
CC1(C)OC1CC/C(=C/CBr)CBr (stereo not given) | 8.17 µM (inactive) | 13.8 µM (inactive) | 15.3 µM (inactive) | 14.9 µM (inactive) | 18.2 µM (inactive) | 15 µM (inactive) | 17.3 µM (inactive) | 15.5 µM (inactive) | 15.5 µM (inactive) | 14.9 µM (inactive) | 17.2 µM (inactive) | 14.1 µM (inactive) | 16.7 µM (inactive) | 16 µM (inactive) | 14.4 µM (inactive) | 15 µM (inactive) | 15.9 µM (inactive) | 17.8 µM (inactive) | 14.8 µM (inactive) | 15.6 µM (inactive)
CC(Br)CN(CC(C)Br)c1ccc2c(c1)Cc1ccccc1-2 (stereo not given) | 2.03 µM (inactive) | 1.76 µM (inactive) | 15.2 µM (inactive) | 14.1 µM (inactive) | 12.3 µM (inactive) | 14.2 µM (inactive) | 11.7 µM (inactive) | 10.2 µM (inactive) | 12 µM (inactive) | 13 µM (inactive) | 18.9 µM (inactive) | 10.7 µM (inactive) | 16.7 µM (inactive) | 16.5 µM (inactive) | 12.4 µM (inactive) | 2.22 µM (inactive) | 14.5 µM (inactive) | 13.7 µM (inactive) | 15.7 µM (inactive) | 10.7 µM (inactive)
CC(C)C[C@H](NC(=O)[C@@H](Cc1cccc2ccccc12)NC(=O)N1CCOCC1)B(O)O | 1.57 µM (inactive) | 3.13 µM (inactive) | 2.59 µM (inactive) | 2.18 µM (inactive) | 6.47 µM (inactive) | 3.14 µM (inactive) | 16 µM (inactive) | 2.96 µM (inactive) | 2.9 µM (inactive) | 2.64 µM (inactive) | 2.14 µM (inactive) | 14 µM (inactive) | 3.99 µM (inactive) | 5.13 µM (inactive) | 19.5 µM (inactive) | 18.5 µM (inactive) | 16.4 µM (inactive) | 1.92 µM (inactive) | 3.33 µM (inactive) | 4.57 µM (inactive)
COc1ccc(C2Oc3ccc(Cl)cc3C=C2[N+](=O)[O-])cc1OC (stereo not given) | 0.0413 µM (active) | 0.0661 µM (active) | 0.231 µM (active) | 1.41 µM (inactive) | 1.51 µM (inactive) | 0.188 µM (active) | 1.49 µM (inactive) | 0.617 µM (active) | 1.61 µM (inactive) | 1 µM (active) | 1.27 µM (inactive) | 1.48 µM (inactive) | 1.15 µM (inactive) | 1.48 µM (inactive) | 2 µM (inactive) | 2.38 µM (inactive) | 1.16 µM (inactive) | 0.15 µM (active) | 1.48 µM (inactive) | 1.05 µM (active)
CN(C)c1ccc(/C=C/C=C(/C#N)c2ccccc2)cc1 | 22.3 µM (inactive) | 3.64 µM (inactive) | 1.94 µM (inactive) | 40.7 µM (inactive) | 42.8 µM (inactive) | 6.34 µM (inactive) | 19 µM (inactive) | 37.3 µM (inactive) | 36.9 µM (inactive) | 7.57 µM (inactive) | > 82.4 µM (inactive) | 26.8 µM (inactive) | > 100 µM (inactive) | 4.8 µM (inactive) | > 46 µM (inactive) | 25.5 µM (inactive) | 20.4 µM (inactive) | 2 µM (inactive) | 13.7 µM (inactive) | 17.1 µM (inactive)
COc1cc(N(CCC#N)CCC#N)ccc1C(=N/NC(=O)c1cc(Br)ccc1O)/N=N/c1ccc(C)cc1 | 4.5 µM (inactive) | 24.3 µM (inactive) | 30.9 µM (inactive) | 25.1 µM (inactive) | 23.9 µM (inactive) | 29.7 µM (inactive) | 20.2 µM (inactive) | 15.4 µM (inactive) | 17 µM (inactive) | 32.6 µM (inactive) | 25.1 µM (inactive) | 31 µM (inactive) | 18 µM (inactive) | 17 µM (inactive) | 18.5 µM (inactive) | 15.5 µM (inactive) | 15.7 µM (inactive) | 44.9 µM (inactive) | 23.7 µM (inactive) | 37.4 µM (inactive)
COc1ccc(/C=C\c2cc(OC)c(OC)c(OC)c2)cc1OC | 0.13 µM (active) | 0.0649 µM (active) | 0.0165 µM (active) | 0.136 µM (active) | 0.186 µM (active) | 0.149 µM (active) | 0.128 µM (active) | 0.298 µM (active) | 0.216 µM (active) | 0.124 µM (active) | 0.143 µM (active) | 0.108 µM (active) | 0.912 µM (active) | 0.0957 µM (active) | 2.21 µM (inactive) | 0.142 µM (active) | 0.0767 µM (active) | 0.0184 µM (active) | 0.0641 µM (active) | 0.117 µM (active)
COc1cc2cc[n+](C)c(Cc3ccc(Oc4cc(Cc5c6cc(OC)c(OC)cc6cc[n+]5C)ccc4OC)cc3)c2cc1OC | > 100 µM (inactive) | > 100 µM (inactive) | > 100 µM (inactive) | > 100 µM (inactive) | 40.3 µM (inactive) | > 100 µM (inactive) | > 100 µM (inactive) | > 100 µM (inactive) | > 100 µM (inactive) | > 100 µM (inactive) | > 100 µM (inactive) | 59.2 µM (inactive) | > 100 µM (inactive) | > 100 µM (inactive) | > 100 µM (inactive) | > 100 µM (inactive) | > 100 µM (inactive) | > 100 µM (inactive) | > 100 µM (inactive) | > 100 µM (inactive)
